Measured values from patent publication US9738697B2 (Wisconsin Alumni Research Foundation, priority 2013, dated 2017).
“Also recorded” adds a separate entry of the source.

Experiments:
neprilysin (NEP 24.11) = settings: cited from earlier work
[1] = tested on: dipeptidyl peptidase-4 (DPP-4); settings: cited from earlier work
DPP-4 [2] = experiment: DPP-4 (EMD Biosciences; catalog #317640) in TBS buffer, pH 8.0; settings: 37° C., up to seven (7) days
neprilysin = target: T1, neprilysin (Homo sapiens, UniProt P08473); experiment: Protease assay with neprilysin (HPLC); format: in vitro ADME; settings: 40 μg/mL neprilysin
T1 construct: purchased Reprokine; Ltd. RKP08473
T1 sequence (P08473 whole entry): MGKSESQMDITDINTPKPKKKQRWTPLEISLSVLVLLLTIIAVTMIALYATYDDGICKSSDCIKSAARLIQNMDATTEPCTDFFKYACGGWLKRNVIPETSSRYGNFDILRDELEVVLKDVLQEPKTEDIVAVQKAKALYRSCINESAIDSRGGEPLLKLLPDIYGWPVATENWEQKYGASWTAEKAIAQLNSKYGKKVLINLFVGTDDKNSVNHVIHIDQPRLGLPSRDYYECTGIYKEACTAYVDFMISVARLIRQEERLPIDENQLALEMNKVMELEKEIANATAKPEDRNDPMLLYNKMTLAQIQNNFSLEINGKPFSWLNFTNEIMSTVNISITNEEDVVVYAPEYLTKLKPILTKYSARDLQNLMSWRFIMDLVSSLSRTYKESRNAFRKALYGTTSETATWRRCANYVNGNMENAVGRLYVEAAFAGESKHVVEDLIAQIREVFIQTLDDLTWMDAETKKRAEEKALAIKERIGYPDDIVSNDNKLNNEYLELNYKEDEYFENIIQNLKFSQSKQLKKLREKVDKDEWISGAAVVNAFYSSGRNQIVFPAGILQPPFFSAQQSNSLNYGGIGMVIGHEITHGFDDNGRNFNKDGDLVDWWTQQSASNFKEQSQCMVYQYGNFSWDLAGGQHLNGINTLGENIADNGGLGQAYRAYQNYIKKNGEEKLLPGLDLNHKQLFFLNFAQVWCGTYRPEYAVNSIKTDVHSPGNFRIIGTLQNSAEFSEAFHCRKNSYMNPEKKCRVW
Method: An HPLC method from the literature was used to assess protease action on selected compounds.^29,31 Two nmol of solid peptide was dissolved in 40 μL of TBS pH 8.0 (resulting concentration of peptide=40 μM) before protease was added. Chymotrypsin was purchased from Promega (Fitchburg, Wis.; catalog #V1062), and neprilysin was purchased from Reprokine. Ltd. (Valley Cottage, N.Y.; catalog #RKP08473); stock solutions of 250 μg/mL chymotrypsin and 200 μg/mL neprilysin in water were prepared. A 10 μL aliquot of protease stock solution was added to 40 μL of 40 μM peptide solution to begin the reaction. Periodically, a 10 μL aliquot of the solution was removed, and protease action was halted by adding this aliquot to 100 μL of 1% aqueous TFA solution. […] The time course of peptide degradation was experimentally determined by integrating the area of each peak in a series of HPLC traces. The area percent of parent peptide (relative to the initial trace) was calculated for each trace and plotted in GraphPad Prism as an exponential decay to determine half-life values.
Major backbone cut sites, as determined by MALDI-TOF-MS, are indicated with double front slashes.

DPP-4 [3] = target: T2, DPP-4 (Homo sapiens, UniProt P27487); experiment: Protease assay with DPP-4 (HPLC); format: in vitro ADME; settings: TBS pH 8.0, 37° C.
T2 construct: purchased EMD Biosciences 317640
T2 sequence (P27487 whole entry): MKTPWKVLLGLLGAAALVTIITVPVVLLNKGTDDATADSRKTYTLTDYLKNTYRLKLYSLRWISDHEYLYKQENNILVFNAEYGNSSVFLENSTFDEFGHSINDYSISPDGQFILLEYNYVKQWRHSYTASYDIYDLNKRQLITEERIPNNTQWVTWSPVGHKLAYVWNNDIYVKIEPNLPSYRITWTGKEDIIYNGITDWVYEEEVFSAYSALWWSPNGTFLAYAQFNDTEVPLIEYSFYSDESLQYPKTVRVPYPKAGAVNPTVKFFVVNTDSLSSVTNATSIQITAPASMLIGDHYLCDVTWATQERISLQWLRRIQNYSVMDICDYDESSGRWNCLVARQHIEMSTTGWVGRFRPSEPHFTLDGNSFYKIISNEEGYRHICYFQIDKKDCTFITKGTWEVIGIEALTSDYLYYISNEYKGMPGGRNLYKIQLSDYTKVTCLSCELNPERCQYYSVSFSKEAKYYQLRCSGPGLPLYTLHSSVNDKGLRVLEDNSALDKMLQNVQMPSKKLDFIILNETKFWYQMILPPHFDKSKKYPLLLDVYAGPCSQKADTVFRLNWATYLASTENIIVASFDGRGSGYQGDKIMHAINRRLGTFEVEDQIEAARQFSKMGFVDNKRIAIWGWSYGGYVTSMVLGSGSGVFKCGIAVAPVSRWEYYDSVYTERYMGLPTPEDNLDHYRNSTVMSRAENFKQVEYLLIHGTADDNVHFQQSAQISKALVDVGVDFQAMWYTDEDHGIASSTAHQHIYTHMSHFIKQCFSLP

human GLP-1 receptor = human GLP-1 receptor (Homo sapiens, UniProt P43220); experiment: GLP-1R activation monitored by cAMP production in HEK293 cells
Sequence of human GLP-1 receptor (P43220 24-463): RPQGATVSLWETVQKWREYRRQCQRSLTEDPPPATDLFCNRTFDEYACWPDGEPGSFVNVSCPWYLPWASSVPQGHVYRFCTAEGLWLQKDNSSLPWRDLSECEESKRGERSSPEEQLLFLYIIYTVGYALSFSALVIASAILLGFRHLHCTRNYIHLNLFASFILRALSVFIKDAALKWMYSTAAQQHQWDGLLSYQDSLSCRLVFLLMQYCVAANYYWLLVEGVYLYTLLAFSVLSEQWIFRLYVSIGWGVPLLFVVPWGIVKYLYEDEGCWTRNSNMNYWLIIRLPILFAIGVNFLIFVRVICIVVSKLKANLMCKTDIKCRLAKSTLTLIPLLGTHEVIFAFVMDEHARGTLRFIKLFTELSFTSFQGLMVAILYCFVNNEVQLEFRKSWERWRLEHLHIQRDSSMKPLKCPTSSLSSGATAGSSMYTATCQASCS

chymotrypsin [4] = tested on: T3, chymotrypsin; experiment: Protease assay with chymotrypsin (HPLC); format: in vitro ADME; settings: chymotrypsin (50 μg/mL) in TBS, 50 μg/mL chymotrypsin, TBS pH 8.0, room temperature
T3 construct: purchased Promega V1062
Method: (§1) An HPLC method from the literature was used to assess protease action on selected compounds.^29,31 Two nmol of solid peptide was dissolved in 40 μL of TBS pH 8.0 (resulting concentration of peptide=40 μM) before protease was added. Chymotrypsin was purchased from Promega (Fitchburg, Wis.; catalog #V1062), and neprilysin was purchased from Reprokine. Ltd. (Valley Cottage, N.Y.; catalog #RKP08473); stock solutions of 250 μg/mL chymotrypsin and 200 μg/mL neprilysin in water were prepared. A 10 μL aliquot of protease stock solution was added to 40 μL of 40 μM peptide solution to begin the reaction. Periodically, a 10 μL aliquot of the solution was removed, and protease action was halted by adding this aliquot to 100 μL of 1% aqueous TFA solution. A portion (100 μL) of the quenched solution was injected onto an HPLC column using the conditions described under “Peptide Synthesis”, and peaks were analyzed using MALDI-TOF MS. The time course of peptide degradation was experimentally determined by integrating the area of each peak in a series of HPLC traces. The area percent of parent peptide (relative to the initial trace) was calculated for each trace and plotted in GraphPad Prism as an exponential decay to determine half-life values.
(§2) ID. […] Major backbone cut sites are indicated with double front slashes. […] Digestion occurs at three major cleavage sites. […] ID. NO: 7 with 50 μg/mL chymotrypsin in TBS pH 8.0 at room temperature. […] ID. NO: 9 with 50 μg/mL chymotrypsin in TBS pH 8.0 at room temperature. This peptide has seven substitutions, α→Aib.

chymotrypsin [5] = target: T4, chymotrypsin (Bos taurus, UniProt P00766); experiment: Protease assay with chymotrypsin (HPLC); format: in vitro ADME; settings: 50 μg/mL chymotrypsin
T4 construct: purchased Promega V1062
Method: as §1, §2

C57BL/6J mice = experiment: Glucose tolerance test (GTT) in mice; format: in vivo, mouse
Method: ID. NO: 7 was administered to mice by interperitoneal (i.p.) injection at a 1 mg/kg dose, or lower for SEQ. ID. NO: 7, using an injection volume of 10 mL/kg body mass. Each peptide was first dissolved in prefiltered DMSO at 10 mg/mL concentration, then diluted >20-fold with TBS buffer, pH 7.4 (final DMSO conc.=<5%). Glucose was administered by i.p. injection with a sterile-filtered 30% D-glucose-saline solution at a 1.5 g/kg dose using a 5 mL/kg injection volume.
Thirteen-week-old male C57BL/6J mice (The Jackson Laboratory) (n=4) were fasted overnight on wood chip bedding for 15 hours prior to the experiment. Blood glucose levels were monitored from a tail tip bleed using an ACCU-CHEK®-brand blood glucose meter (Roche Diagnostics, Indianapolis, Ind.). Fasting glucose levels were measured at 75 minutes prior to the glucose injection (t=−75 min), and the compound injection was performed 60 minutes prior to the glucose injection (t=−60 min). Glucose levels were measured immediately prior to the glucose injection (t=0 min) to assess any changes in the baseline glucose caused by peptide administration. Blood glucose levels were monitored at 30, 60, 90, and 120 minutes after injection of glucose.
Five hours after peptide injection, the mice received a second injection of 1.5 g/kg glucose. Blood glucose was monitored at 30 min after this second glucose injection. Mice were sacrificed by CO2 inhalation at the conclusion of the GTT.

H-HAEGTFTSDVSSYLEGQAAKEFIAWLVKGRG-NH2
cleaved bond (neprilysin (NEP 24.11)): Asp15-Val16; also recorded: cleaves after Ser18; also recorded: cleaves after Tyr19; also recorded: cleaves after Glu27; also recorded: cleaves after Phe28; also recorded: cleaves after Trp31 | cleaved bond [1]: cleaves after Ala8

H-HAEGTFTSDASXYLEXQAAXEFIXWLVZGRG-NH2
not cleaved (DPP-4 [2]): no cleavage was detected during seven (7) days

CC[C@H](C)[C@H](NC(=O)[C@H](Cc1ccccc1)NC(=O)[C@H](CCC(=O)O)NC(=O)[C@H]1CCC[C@@H]1NC(=O)[C@H](C)NC(=O)[C@H](C)NC(=O)[C@H](CCC(N)=O)NC(=O)[C@H]1CCC[C@@H]1NC(=O)[C@H](CCC(=O)O)NC(=O)[C@H](CC(C)C)NC(=O)[C@H](Cc1ccc(O)cc1)NC(=O)[C@H]1CCC[C@@H]1NC(=O)[C@H](CO)NC(=O)C(C)(C)NC(=O)[C@H](CC(=O)O)NC(=O)[C@H](CO)NC(=O)[C@@H](NC(=O)[C@H](Cc1ccccc1)NC(=O)[C@@H](NC(=O)CNC(=O)[C@H](CCC(=O)O)NC(=O)C(C)(C)NC(=O)[C@@H](N)Cc1c[nH]cn1)[C@@H](C)O)[C@@H](C)O)C(=O)N[C@H]1CCC[C@@H]1C(=O)N[C@@H](Cc1c[nH]c2ccccc12)C(=O)N[C@@H](CC(C)C)C(=O)N[C@H](C(=O)N[C@H]1CNC[C@@H]1C(=O)NCC(=O)N[C@@H](CCCNC(=N)N)C(=O)NCC(N)=O)C(C)C [SEQ. ID. NO: 7]
t1/2 with neprilysin relative to native GLP-1 peptide (neprilysin): more than 100 times | cleavage by DPP-4 over seven days (in words) (DPP-4 [3]; monitored seven days): no cleavage was detected | Max Response (% GLP-1 max) (human GLP-1 receptor; HEK293 cells, cAMP production): 88 % GLP-1 max | cAMP production, AVERAGES at M Concentrations −7 (human GLP-1 receptor; peptide concentration −7 (log M)): 88.32 | cAMP production, AVERAGES at M Concentrations −8 (human GLP-1 receptor; peptide concentration −8 (log M)): 63.0221 | cAMP production, AVERAGES at M Concentrations −9 (human GLP-1 receptor; peptide concentration −9 (log M)): 35 | cAMP production, AVERAGES at M Concentrations −10 (human GLP-1 receptor; peptide concentration −10 (log M)): 4.469 | cAMP production, AVERAGES at M Concentrations −11 (human GLP-1 receptor; peptide concentration −11 (log M)): 3.504 | cAMP production, AVERAGES at M Concentrations −12 (human GLP-1 receptor; peptide concentration −12 (log M)): 2.813 | cAMP production, AVERAGES at M Concentrations −13 (human GLP-1 receptor; peptide concentration −13 (log M)): 3.831 | remaining at 25 min, 40 μM (chymotrypsin [4]; 1500 seconds, read-out: peptide remaining after 1500 seconds): > 25% | half-life (chymotrypsin [5]; 40 μM peptide, TBS pH 8.0, room temperature, read-out: t1/2 with chymotrypsin (converted)): 12.5 min

CC[C@H](C)[C@H](NC(=O)[C@H](Cc1ccccc1)NC(=O)[C@H](CCC(=O)O)NC(=O)[C@H](CCCCN)NC(=O)[C@H](C)NC(=O)[C@H](C)NC(=O)[C@H](CCC(N)=O)NC(=O)CNC(=O)[C@H](CCC(=O)O)NC(=O)[C@H](CC(C)C)NC(=O)[C@H](Cc1ccc(O)cc1)NC(=O)[C@H](CO)NC(=O)[C@H](CO)NC(=O)[C@@H](NC(=O)[C@H](CC(=O)O)NC(=O)[C@H](CO)NC(=O)[C@@H](NC(=O)[C@H](Cc1ccccc1)NC(=O)[C@@H](NC(=O)CNC(=O)[C@H](CCC(=O)O)NC(=O)[C@H](C)NC(=O)[C@@H](N)Cc1c[nH]cn1)[C@@H](C)O)[C@@H](C)O)C(C)C)C(=O)N[C@@H](C)C(=O)N[C@@H](Cc1c[nH]c2ccccc12)C(=O)N[C@@H](CC(C)C)C(=O)N[C@H](C(=O)N[C@@H](CCCCN)C(=O)NCC(=O)N[C@@H](CCCNC(=N)N)C(=O)NCC(N)=O)C(C)C [SEQ. ID. NO: 1]
number of major cleavage sites, neprilysin (neprilysin; MALDI-TOF-MS): five | half-life at 40 μM (neprilysin; neprilysin (isolated protease), pH 8, 40 μM peptide, TBS pH 8.0, room temperature, read-out: half-life (t1/2) with neprilysin (converted)): 19.8 min | half-life at 40 μM (DPP-4 [3]; DPP-4 (isolated protease)): 13.5 min | remaining at 1 min, 40 μM (chymotrypsin [4]; 60 seconds, read-out: peptide remaining after 60 seconds of digestion): < 25% | number of major cleavage sites, chymotrypsin (chymotrypsin [5]; MALDI-TOF-MS): three | half-life at 40 μM (chymotrypsin [5]; chymotrypsin (isolated protease), 40 μM peptide, TBS pH 8.0, room temperature, read-out: t1/2 with chymotrypsin (converted)): 0.317 min | Average Blood Glucose Level (C57BL/6J mice; 1 mg/kg i.p., time 0.0 min): 81.8 mg/dL | Average Blood Glucose Level (C57BL/6J mice; 1 mg/kg i.p., time 30.0 min): 132.8 mg/dL | Average Blood Glucose Level (C57BL/6J mice; 1 mg/kg i.p., time 60.0 min): 99.3 mg/dL | Average Blood Glucose Level (C57BL/6J mice; 1 mg/kg i.p., time 90.0 min): 74.8 mg/dL | Average Blood Glucose Level (C57BL/6J mice; 1 mg/kg i.p., time 120.0 min): 86.0 mg/dL | Average Blood Glucose Level (C57BL/6J mice; 1 mg/kg i.p., time −60.0 min (peptide injection)): 108.0 mg/dL | Average Blood Glucose Level at 30 min (column head AUC) (C57BL/6J mice; 1 mg/kg i.p., Table 7, 30 min after second glucose injection given five hours after peptide): 250.5 | glucose-lowering effect in GTT repeated 5 hours after agonist administration (in words) (C57BL/6J mice; 1 mg/kg, 30 min after the second glucose challenge): no significant difference
